Columns and labels:
Format in all cases: biochemical
[1] = target: T1, TbDHFR (T. brucei dihydrofolate reductase) (Trypanosoma brucei, UniProt Q27783); experiment: DHFR inhibition assay
[2] = target: T2, HsDHFR (human DHFR) (Homo sapiens, UniProt P00374); experiment: DHFR inhibition assay
T2 sequence (P00374 1-187): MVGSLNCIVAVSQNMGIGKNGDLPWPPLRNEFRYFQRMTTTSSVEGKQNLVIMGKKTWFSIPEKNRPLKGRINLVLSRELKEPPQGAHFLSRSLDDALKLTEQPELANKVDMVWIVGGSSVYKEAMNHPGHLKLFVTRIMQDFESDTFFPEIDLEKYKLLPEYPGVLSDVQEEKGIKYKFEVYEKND

[3] = target: T1, TbDHFR (T. brucei dihydrofolate reductase); experiment: DHFR inhibition assay; settings: unreliable: sample contaminated with ~25% of compound 33
[4] = target: T2, HsDHFR (human DHFR); experiment: DHFR inhibition assay; settings: unreliable: sample contaminated with ~25% of compound 33
[5] = target: T3, TbPTR1 (T. brucei pteridine reductase 1) (Trypanosoma brucei, UniProt O76290); experiment: HPLC-based PTR1 assay
T3 sequence (O76290 1-268): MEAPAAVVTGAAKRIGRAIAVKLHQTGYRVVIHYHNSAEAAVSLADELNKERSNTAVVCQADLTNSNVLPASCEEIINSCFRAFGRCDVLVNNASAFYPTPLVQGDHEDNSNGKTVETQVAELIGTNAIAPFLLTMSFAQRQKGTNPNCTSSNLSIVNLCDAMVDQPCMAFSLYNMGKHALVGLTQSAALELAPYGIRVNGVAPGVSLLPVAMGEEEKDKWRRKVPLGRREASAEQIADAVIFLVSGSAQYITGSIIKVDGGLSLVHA

[6] = target: T4, endogenous PTR1 in clarified T. brucei lysate (Trypanosoma brucei, UniProt O76290); experiment: HPLC-based PTR1 assay
T4 sequence (O76290 1-268): T3 sequence (O76290 1-268)

T1 sequence (Q27783 whole entry): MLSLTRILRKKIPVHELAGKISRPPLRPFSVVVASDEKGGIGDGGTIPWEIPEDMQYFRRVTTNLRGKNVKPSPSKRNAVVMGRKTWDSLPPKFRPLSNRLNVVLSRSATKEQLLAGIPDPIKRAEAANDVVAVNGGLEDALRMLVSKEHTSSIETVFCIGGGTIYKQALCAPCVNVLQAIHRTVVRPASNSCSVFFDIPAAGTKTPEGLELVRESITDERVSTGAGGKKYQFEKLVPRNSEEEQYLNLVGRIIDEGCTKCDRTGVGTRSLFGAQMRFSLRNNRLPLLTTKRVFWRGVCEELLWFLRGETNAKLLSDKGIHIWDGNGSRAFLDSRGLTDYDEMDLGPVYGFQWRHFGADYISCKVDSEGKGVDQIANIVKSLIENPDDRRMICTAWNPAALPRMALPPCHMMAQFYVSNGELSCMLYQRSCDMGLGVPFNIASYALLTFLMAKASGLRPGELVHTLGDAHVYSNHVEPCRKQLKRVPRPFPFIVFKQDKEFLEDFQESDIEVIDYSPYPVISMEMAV

Structure (SMILES)	IC50 [1]	IC50 [2]	TbDHFR IC50 [3]	HsDHFR IC50 [4]	IC50 [5]	IC50 [6]
Nc1nc2ccccc2n1Cc1ccc(Cl)c(Cl)c1 [compound 11]	> 50 µM	> 50 µM	–	–	–	–
Nc1nc2c(Cl)cccc2n1Cc1ccc(Cl)c(Cl)c1 [compound 24]	> 30 µM	> 50 µM	–	–	–	–
CCCOc1cccc2c1nc(N)n2Cc1ccc(Cl)c(Cl)c1 [compound 25]	> 30 µM	> 50 µM	–	–	–	–
Nc1nc2c(OCc3ccccc3)cccc2n1Cc1ccc(Cl)c(Cl)c1 [compound 26]	> 50 µM	> 50 µM	–	–	–	–
Nc1nc2c(-c3ccccc3)cccc2n1Cc1ccc(Cl)c(Cl)c1 [compound 27]	> 30 µM	> 30 µM	–	–	–	–
COc1cccc2c1nc(N)n2Cc1ccc(Cl)c(Cl)c1 [compound 28]	–	–	> 30 µM	> 50 µM	–	–
Nc1nc2cccc(Cl)c2n1Cc1ccc(Cl)c(Cl)c1 [compound 29]	> 30 µM	> 50 µM	–	–	–	–
CCCOc1cccc2nc(N)n(Cc3ccc(Cl)c(Cl)c3)c12 [compound 30]	> 30 µM	> 50 µM	–	–	–	–
Nc1nc2cccc(OCc3ccccc3)c2n1Cc1ccc(Cl)c(Cl)c1 [compound 31]	> 50 µM	> 50 µM	–	–	–	–
Nc1nc2cccc(-c3ccccc3)c2n1Cc1ccc(Cl)c(Cl)c1 [compound 32]	> 50 µM	> 50 µM	–	–	0.00099 ± 0.00013 µM	0.00088 ± 0.00013 µM
COc1cccc2nc(N)n(Cc3ccc(Cl)c(Cl)c3)c12 [compound 33]	> 30 µM	> 50 µM	–	–	–	–
Cc1cc2nc(N)n(Cc3ccc(Cl)c(Cl)c3)c2cc1C [compound 34]	> 30 µM	> 30 µM	–	–	–	–
